Test results taken from patent US9629815B2, “Benzoquinone derivatives for treating oxidative stress disorders” (Edison Pharmaceuticals, Inc., priority 2012, dated 2017).

Columns and labels:
Assay type in all cases: cell-based
[1] = system: human dermal fibroblasts from Huntington's patients; assay: Rescue of fibroblasts from Huntington's patients from oxidative stress; conditions: Fibroblast, Huntington's cells GM 04281, screen similar to Example 1, read-out: protection against Huntington's, EC50
[2] = system: human dermal fibroblasts from Parkinson's Disease patients; assay: Rescue of fibroblasts from Parkinson's Disease patients from oxidative stress; conditions: Fibroblast, PD cells AG20439, screen similar to Example 1, read-out: protection against Parkinson's Disease, EC50
[3] = system: Human dermal fibroblasts from Friedreich's Ataxia patients; assay: Rescue of BSO-stressed FRDA fibroblasts (Calcein AM viability); conditions: FRDA fibroblasts GM04078, 1 mM BSO, 48 h, read-out: protection against FRDA, EC50
Method: Test samples and solvent controls were tested for their ability to rescue FRDA fibroblasts stressed by addition of L-buthionine-(S,R)-sulfoximine (BSO), as described in Jauslin et al., Hum. Mol. Genet. 11(24):3055 (2002), Jauslin et al., FASEB J. 17:1972-4 (2003), and International Patent Application WO 2004/003565. […] This specific BSO-mediated cell death can be prevented by administration of antioxidants or molecules involved in the antioxidant pathway, such as alpha-tocopherol, selenium, or small molecule glutathione peroxidase mimetics. However, antioxidants differ in their potency, i.e. the concentration at which they are able to rescue BSO-stressed FRDA fibroblasts.
MEM (a medium enriched in amino acids and vitamins, catalog no. 1-31F24-I) and Medium 199 (M199, catalog no. 1-21F22-I) with Earle's Balanced Salts, without phenol red, were purchased from Bioconcept. Fetal Calf Serum was obtained from PAA Laboratories. Basic fibroblast growth factor and epidermal growth factor were purchased from PeproTech. 2,3,5-trimethyl-6-(12-hydroxy-5,10-dodecadiynyl)-1,4-benzoquinone, penicillin-streptomycin-glutamine mix, L-buthionine (S,R)-sulfoximine, and insulin from bovine pancreas were purchased from Sigma. Calcein AM was purchased from Molecular Probes. […]

[4] = system: human dermal fibroblasts from LHON patients; assay: Rescue of fibroblasts from LHON patients from oxidative stress; conditions: Fibroblast, LHON cells GM03858, screen similar to Example 1, read-out: protection against LHON, EC50

CC1=C(C)C(=O)C(CCCCC#CCCCC#CCO)=C(C)C1=O [2,3,5-trimethyl-6-(12-hydroxy-5,10-dodecadiynyl)-1,4-benzoquinone]
EC50 [1]: < 50 nM
EC50 [2]: < 100 nM
EC50 [3]: < 100 nM
EC50 [4]: < 100 nM
